Drawing on PubChem BioAssay (NCI), this text covers GI50 and TGI for nine compounds.

Among the test systems are OVCAR-4 ovarian; SF-268 CNS; HCT-116 colon; MALME-3M melanoma; A498 renal; CCRF-CEM leukemia; EKVX NSCLC; UACC-62 melanoma; SK-MEL-2 melanoma; SW-620 colon.
Assay in all cases: NCI tumour cell line growth inhibition, 48 h

Where “and” joins values, the source holds several entries; their conditions need not be identical. Equal entries are not always repeated.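 All cell lines were grown in 96-well plates and treated with compound for 48 hours. Abbreviation: GI50, concentration required for 50% inhibition of growth. TGI: total growth inhibition.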 Where only a bound is given, the exact number is not on record here.

With `O=Cc1c(-c2cc(O)ccc2O)nc2sccn12`, the GI50 was 14.5 µM with OVCAR-4 ovarian; 3.83 µM in the assay on SF-268 CNS; 14 µM with HCT-116 colon; 10.9 µM with MALME-3M melanoma; 29.5 µM in the assay on A498 renal; 0.95 µM with CCRF-CEM leukemia. Also, the GI50 in the assay with EKVX NSCLC was 28.4 µM; in the assay on UACC-62 melanoma it was 10.6 µM; in the assay with SK-MEL-2 melanoma, 20.1 µM; in the assay with SW-620 colon it was 25.3 µM. In addition, the TGI in the assay on OVCAR-4 ovarian was found to be 32.9 µM; in the assay with SF-268 CNS, 38.3 µM; with HCT-116 colon it was 27.3 µM; in the assay on MALME-3M melanoma, 25 µM; in the assay on A498 renal it was 78.9 µM; in the assay with CCRF-CEM leukemia, 7.21 µM. Moreover, the TGI in the assay on EKVX NSCLC was 93.1 µM; with UACC-62 melanoma, 32 µM; in the assay with SK-MEL-2 melanoma, 55.9 µM; in the assay on SW-620 colon, greater than 100 µM.

Consider `Cc1c(/C=N/NS(=O)(=O)c2ccccc2)no[n+]1[O-]`, for which the TGI in the assay with OVCAR-4 ovarian, in the assay on SF-268 CNS, with HCT-116 colon, with MALME-3M melanoma, in the assay with A498 renal and in the assay on CCRF-CEM leukemia was greater than 100 µM in each case. In addition, the TGI with EKVX NSCLC, with UACC-62 melanoma, in the assay with SK-MEL-2 melanoma and in the assay with SW-620 colon was greater than 100 µM throughout.

On to `Cc1ccc(C(=O)Nc2ccc(CN3CCN(C)CC3)c(C(F)(F)F)c2)cc1C#Cc1cnc(N)cc1C#N`, for which the GI50 in the assay with OVCAR-4 ovarian was 0.0998 µM; with SF-268 CNS, 0.2 µM; in the assay with HCT-116 colon it was 0.0852 µM; in the assay on MALME-3M melanoma, 0.0276 µM; with A498 renal, 0.159 µM; with CCRF-CEM leukemia, 0.46 µM. The GI50 in the assay on EKVX NSCLC was 0.366 µM; with UACC-62 melanoma, 0.031 µM; in the assay on SK-MEL-2 melanoma it was 0.108 µM; in the assay with SW-620 colon, 0.33 µM. The TGI amounted to 1.42 µM with OVCAR-4 ovarian; 1.2 µM in the assay with SF-268 CNS; 0.642 µM in the assay with HCT-116 colon; 0.187 µM in the assay with MALME-3M melanoma; 0.701 µM in the assay on A498 renal; 9.61 µM with CCRF-CEM leukemia. For the same compound, the TGI with EKVX NSCLC turned out to be 1.44 µM; in the assay on UACC-62 melanoma it was 0.452 µM; in the assay on SK-MEL-2 melanoma, 0.479 µM; in the assay on SW-620 colon, 1.15 µM.

For the compound `COCCn1cc(-c2csc(-c3c[nH]c4ccccc34)n2)c2cccnc21`, the GI50 in the assay on OVCAR-4 ovarian was 1.76 µM; in the assay on SF-268 CNS it was 6.98 µM; in the assay with HCT-116 colon, 3.63 µM; with MALME-3M melanoma it was 3.58 µM; in the assay with A498 renal, 3.03 µM; with CCRF-CEM leukemia, greater than 100 µM. The GI50 in the assay with EKVX NSCLC is 2 µM; in the assay with UACC-62 melanoma, 4.58 µM; in the assay on SK-MEL-2 melanoma it was 7.38 µM; in the assay with SW-620 colon it was 3.52 µM. Also, the TGI in the assay on OVCAR-4 ovarian was greater than 100 µM; with SF-268 CNS, greater than 100 µM; with HCT-116 colon, greater than 100 µM; in the assay with MALME-3M melanoma, greater than 100 µM; in the assay on A498 renal, 9.56 µM; in the assay on CCRF-CEM leukemia, greater than 100 µM. Further, the TGI in the assay with EKVX NSCLC, in the assay on UACC-62 melanoma, in the assay on SK-MEL-2 melanoma and in the assay on SW-620 colon was greater than 100 µM in each case.

With `Oc1ccc(Cc2ccc(O)c3ncccc23)c2cccnc12`, the GI50 was 0.371 µM in the assay with OVCAR-4 ovarian; 0.0527 µM with SF-268 CNS; 0.0359 µM in the assay with HCT-116 colon; 0.0497 µM in the assay with MALME-3M melanoma; 0.223 µM in the assay with A498 renal; 0.209 µM in the assay on CCRF-CEM leukemia. Also, the GI50 with EKVX NSCLC is 0.344 µM; with UACC-62 melanoma, 0.0408 µM; in the assay on SK-MEL-2 melanoma, 0.228 µM; in the assay on SW-620 colon it was 0.0417 µM. Also, the TGI in the assay on OVCAR-4 ovarian was greater than 100 µM; in the assay with SF-268 CNS it was greater than 100 µM; in the assay on HCT-116 colon it was greater than 100 µM; in the assay with MALME-3M melanoma, greater than 100 µM; in the assay on A498 renal, 0.706 µM; in the assay with CCRF-CEM leukemia it was greater than 100 µM. The TGI with EKVX NSCLC was greater than 100 µM; in the assay with UACC-62 melanoma it was 0.804 µM; with SK-MEL-2 melanoma, 0.681 µM; in the assay with SW-620 colon, greater than 100 µM.

For the compound `O=C1c2cccc3cc([N+](=O)[O-])cc(c23)C(=O)N1CCNCCNCCNCCN1C(=O)c2cccc3cc([N+](=O)[O-])cc(c23)C1=O`, the GI50 in the assay on OVCAR-4 ovarian and in the assay with A498 renal was less than 0.001 µM throughout. For the same compound, the TGI in the assay with OVCAR-4 ovarian was 0.0473 µM and 0.415 µM; with SF-268 CNS it was 0.7 µM; in the assay with HCT-116 colon, 1.08 µM; in the assay on MALME-3M melanoma, 0.297 µM; in the assay with A498 renal it was 0.227 µM; with CCRF-CEM leukemia, 0.635 µM. In addition, the TGI was 0.88 µM in the assay on EKVX NSCLC; 0.106 µM in the assay with UACC-62 melanoma; 0.283 µM with SK-MEL-2 melanoma; 0.449 µM and 0.534 µM with SW-620 colon.

For the compound `CC(C)N(C(=O)C12C3C4C5(C#N)C3C1(I)C5C42I)C(C)C` (configuration not stated), the TGI in the assay with OVCAR-4 ovarian was greater than 77.4 µM; in the assay on SF-268 CNS, greater than 100 µM; with HCT-116 colon, 34.3 µM; with MALME-3M melanoma it was greater than 100 µM; with A498 renal it was greater than 100 µM; with CCRF-CEM leukemia it was greater than 61.8 µM. For the same compound, the TGI in the assay with EKVX NSCLC is greater than 100 µM; in the assay with UACC-62 melanoma it was greater than 100 µM; in the assay on SK-MEL-2 melanoma it was greater than 100 µM; with SW-620 colon it was greater than 53.1 µM.

As for `O=S(=O)([O-])c1cccc2cccc(N=Cc3ccccc3[O-])c12.O=S(=O)([O-])c1cccc2cccc(N=Cc3ccccc3[O-])c12.[O]=[U]=[O]`, the GI50 is 41.6 µM in the assay on OVCAR-4 ovarian; greater than 100 µM in the assay with SF-268 CNS; 22.3 µM in the assay on HCT-116 colon; greater than 100 µM in the assay on MALME-3M melanoma; greater than 100 µM in the assay with A498 renal; 18.4 µM in the assay on CCRF-CEM leukemia. In addition, the GI50 in the assay with EKVX NSCLC was greater than 100 µM; in the assay on UACC-62 melanoma, greater than 100 µM; in the assay with SK-MEL-2 melanoma, greater than 100 µM; in the assay with SW-620 colon, 42.1 µM. In addition, the TGI with OVCAR-4 ovarian, in the assay on SF-268 CNS, in the assay with HCT-116 colon, in the assay with MALME-3M melanoma, in the assay on A498 renal and in the assay on CCRF-CEM leukemia was greater than 100 µM each time. Also, the TGI in the assay on EKVX NSCLC, with UACC-62 melanoma, with SK-MEL-2 melanoma and in the assay on SW-620 colon was greater than 100 µM each time.

With `N#CC(C(=O)/C(=N/N)C(C#N)c1ccc(Cl)cc1)c1ccc(Cl)cc1` (configuration not stated), the TGI in the assay with OVCAR-4 ovarian, in the assay with SF-268 CNS, with HCT-116 colon, with MALME-3M melanoma, in the assay with A498 renal and in the assay with CCRF-CEM leukemia was greater than 100 µM in each case. The TGI in the assay with EKVX NSCLC, in the assay with UACC-62 melanoma, with SK-MEL-2 melanoma and in the assay on SW-620 colon was greater than 100 µM in each case.
